One may read the melting point as the temperature of the solid-liquid transition.

The first data set deals with T1, recombinant human Cathepsin K (Homo sapiens, UniProt P43235).
T1 sequence (P43235 115-329): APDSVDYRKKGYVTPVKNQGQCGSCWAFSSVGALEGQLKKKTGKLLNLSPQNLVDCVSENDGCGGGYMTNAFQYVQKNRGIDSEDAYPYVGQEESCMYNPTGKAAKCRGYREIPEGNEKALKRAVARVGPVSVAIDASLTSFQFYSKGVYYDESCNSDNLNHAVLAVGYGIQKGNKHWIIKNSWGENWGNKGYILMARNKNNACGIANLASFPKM
Put plainly: Cathepsin K activity: inhibition of recombinant human Cathepsin K, fluorogenic substrate Z-Phe-Arg-AMC. Type of data set: biochemical. The note with it: pH5.5, fluorescence at 10 minutes, read-out: pIC50 (negative logarithm of the IC50 concentration) for inhibition of human cathepsin K (converted). On the procedure:
To a 384 well microtitre plate is added 5 μl of a 100 μM solution of test compound in assay buffer (100 mM sodium acetate pH5.5, 5 mM EDTA, 5 mM dithiothreitol) with 10% dimethylsulfoxide (DMSO), plus 10 μl of 100 μM solution of the substrate Z-Phe-Arg-AMC (Bachem; 7-amido-coumarine derivative of the dipeptide N-benzyloxycarbonyl-Phe-Arg-OH) in assay buffer and 25 μl of assay buffer. 10 μl of a 1 mg/l solution of activated recombinant human cathepsin K, in assay buffer, is then added to the well, yielding a final inhibitor concentration of 10 μM.
Enzyme activity is determined by measuring the fluorescence of the liberated aminomethylcoumarin at […] using […] excitation, at 10 minutes. Percentage enzyme activity is calculated by comparison of this activity to that of a solution containing no inhibitor.
In the case of `N#Cc1nc(CCCNC2CCCCC2)cc(-c2cccc(C(F)(F)F)c2)n1` [Example 4e, 4-(3-Cyclohexylamino-propyl)-6-(3-trifluoromethylphenyl)-pyrimidine-2-carbonitrile], the IC50 was less than 10 nM.
On to `CC(C)NCCCc1cc(-c2cccc(C(F)(F)F)c2)nc(C#N)n1` [Example 4f, 4-(3-isopropylamino-propyl)-6-(3-trifluoromethylphenyl)-pyrimidine-2-carbonitrile], for which the IC50 is less than 10 nM.
The same measure, in the same setting: to `CN1CCCN(CCCc2cc(-c3cccc(C(F)(F)F)c3)nc(C#N)n2)CC1` [Example 4u, 4-[3-(4-Methyl-[1,4]diazepan-1-yl)-propyl]-6-(3-trifluoromethylphenyl)-pyrimidine-2-carbonitrile] belongs less than 10 nM; to `N#Cc1nc(CCCN2CCN(c3ccccn3)CC2)cc(-c2cccc(C(F)(F)F)c2)n1` [4a′, 4-[3-(4-Pyridin-2-yl-piperazin-1-yl)-propyl]-6-(3-trifluoromethylphenyl)-pyrimidine-2-carbonitrile], less than 10 nM.
Turning to `CN(CCCc1cc(-c2cccc(C(F)(F)F)c2)nc(C#N)n1)Cc1ccccc1` [Example 4g, 4-[3-(Benzyl-methyl-amino)-propyl]-6-(3-trifluoromethylphenyl)-pyrimidine-2-carbonitrile], the IC50 was less than 10 nM.
As for `N#Cc1nc(CCCN2CCCCC2)cc(-c2cccc(C(F)(F)F)c2)n1` [Example 4a, 4-(3-Piperidin-1-yl-propyl)-6-(3-trifluoromethylphenyl)-pyrimidine-2-carbonitrile], the IC50 was less than 10 nM.
For the compound `N#Cc1nc(CCCNCc2ccncc2)cc(-c2cccc(C(F)(F)F)c2)n1` [Example 4i, 4-{3-[(Pyridin-4-ylmethyl)-amino]-propyl}-6-(3-trifluoromethylphenyl)-pyrimidine-2-carbonitrile], the IC50 is less than 10 nM.
Take `Cc1ccc(-c2cc(CCCNCCN3CCNC3=O)nc(C#N)n2)cc1C` [Example 14n, 4-(3,4-Dimethyl-phenyl)-6-{3-[2-(2-oxo-imidazolidin-1-yl)-ethylamino]-propyl}-pyrimidine-2-carbonitrile]: the IC50 is less than 10 nM.
Consider `CC(C)CNCCCc1cc(-c2cccc(C(F)(F)F)c2)nc(C#N)n1` [Example 4h, 4-(3-Isobutylamino-propyl)-6-(3-trifluoromethylphenyl)-pyrimidine-2-carbonitrile], for which the IC50 was less than 100 nM.
As for `CNC(=O)CNCCCc1cc(-c2cccc(C(F)(F)F)c2)nc(C#N)n1` [Example 8a, 4-[3-(Methylcarbamoylmethyl-amino)-propyl]-6-(3-trifluoromethylphenyl)-pyrimidine-2-carbonitrile], the IC50 is less than 10 nM.
Take `CCCc1nc(C#N)nc(-c2cccc(C(F)(F)F)c2)c1C` [Example 2, 5-Methyl-4-propyl-6-(3-trifluoromethylphenyl)-pyrimidine-2-carbonitrile]: the IC50 was less than 100 nM.
Still for that read-out and setting: to `CCC(CC)NCCCc1cc(-c2cccc(C(F)(F)F)c2)nc(C#N)n1` [Example 4r, 4-[3-(1-Ethyl-propylamino)-propyl]-6-(3-trifluoromethylphenyl)-pyrimidine-2-carbonitrile] belongs less than 10 nM; to `CN1CCC(N(C)CCCc2cc(-c3cccc(C(F)(F)F)c3)nc(C#N)n2)CC1` [Example 4s, 4-{3-[Methyl-(1-methyl-piperidin-4-yl)-amino]-propyl}-6-(3-trifluoromethylphenyl)-pyrimidine-2-carbonitrile], less than 10 nM.
For `CN1CCN(CCCc2cc(-c3cccc(C(F)(F)F)c3)nc(C#N)n2)CC1` [Example 4d, 4-[3-(4-Methyl-piperazin-1-yl)-propyl]-6-(3-trifluoromethylphenyl)-pyrimidine-2-carbonitrile], the IC50 is less than 10 nM.
Turning to `CC(=O)NCCNCCCc1cc(-c2ccc(C)c(C)c2)nc(C#N)n1` [Example 14j, 4-[3-(2-Acetylamino-ethylamino)-propyl]-6-(3,4-dimethyl-phenyl)-pyrimidine-2-carbonitrile], the IC50 is less than 10 nM.

System in the next data set: not given
Assay: not given
Settings: not given
For the compound `CCCc1cc(-c2cccc(C(C)C)c2)nc(C#N)n1` [Example 5a, 4-(3-Isopropyl-phenyl)-6-propyl-pyrimidine-2-carbonitrile], the melting point turned out to be 64 °C.
Same read-out and setting: to `CCCc1cc(-c2cc(C(F)(F)F)cc(C(F)(F)F)c2)nc(C#N)n1` [Example 6a, 4-(3,5-Bis-trifluoromethyl-phenyl)-6-propyl-pyrimidine-2-carbonitrile] belongs 112 °C.

Values taken from patent publication US7589095B2, “4-phenyl-pyrimidine-2-carbonitrile derivatives” (N.V. Organon, priority 2004, dated 2009).
